Experimental findings from paper PMC7932537, “Quantitative profiling of protease specificity” (PLoS Computational Biology, 2021) are described below.

For one test, the target named is MMP-9 (Homo sapiens, UniProt P14780). Description: K(obs) of individual phage substrates (set of 1369). Format: biochemical. To be noted: MMP9.
In test [1] the test system is MMP-2. Description: Substrate phage display with NGS: relative probability (RP) of P3-P1' tetramer clusters.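 Note: ratio of tetramer probability after protease selection to that in naive phage library.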 Type of test: biochemical, human. The following applies: MMP2.
Test [2] addresses T1, MMP-2 (Homo sapiens, UniProt P08253).
T1 sequence (P08253 110-660): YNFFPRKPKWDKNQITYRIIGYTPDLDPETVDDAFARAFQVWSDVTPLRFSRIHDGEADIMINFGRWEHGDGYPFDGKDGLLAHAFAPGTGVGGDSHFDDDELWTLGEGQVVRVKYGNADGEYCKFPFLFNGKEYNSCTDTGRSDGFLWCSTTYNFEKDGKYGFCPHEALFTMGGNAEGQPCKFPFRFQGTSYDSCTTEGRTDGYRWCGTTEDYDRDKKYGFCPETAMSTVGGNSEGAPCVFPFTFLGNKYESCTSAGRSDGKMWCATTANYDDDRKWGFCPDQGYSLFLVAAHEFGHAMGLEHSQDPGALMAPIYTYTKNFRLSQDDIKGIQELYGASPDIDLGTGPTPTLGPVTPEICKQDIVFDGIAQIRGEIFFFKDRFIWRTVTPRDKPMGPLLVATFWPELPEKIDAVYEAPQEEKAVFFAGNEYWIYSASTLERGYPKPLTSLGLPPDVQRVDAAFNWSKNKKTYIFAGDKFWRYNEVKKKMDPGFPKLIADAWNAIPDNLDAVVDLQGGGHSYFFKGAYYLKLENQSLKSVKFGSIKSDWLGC
Nature of the test: K(obs) of individual phage substrates (set of 1369). Format: biochemical. To be noted: MMP2.

The mark [3] stands for this setting: individual phage substrate of the set of 1369 peptides, dash in the sequence marks the cleavage position.
Setting [4] is: RP of the P3-P1' tetramer contained in the substrate.
[5] abbreviates: individual phage substrate of the set of 1369 peptides, cleavage position marked by '-'.
Setting [6] is: individual phage substrates, set of 1369 peptides, hyphen in sequence marks cleavage position.
The mark [7] stands for this setting: RP of the P3-P1' tetramer contained in the substrate (substrate phage display with NGS).
Setting [8] is: individual phage substrates, set of 1369 peptides, cleavage position marked by hyphen in sequence.

Chain of MMP-9 (P14780 94-707): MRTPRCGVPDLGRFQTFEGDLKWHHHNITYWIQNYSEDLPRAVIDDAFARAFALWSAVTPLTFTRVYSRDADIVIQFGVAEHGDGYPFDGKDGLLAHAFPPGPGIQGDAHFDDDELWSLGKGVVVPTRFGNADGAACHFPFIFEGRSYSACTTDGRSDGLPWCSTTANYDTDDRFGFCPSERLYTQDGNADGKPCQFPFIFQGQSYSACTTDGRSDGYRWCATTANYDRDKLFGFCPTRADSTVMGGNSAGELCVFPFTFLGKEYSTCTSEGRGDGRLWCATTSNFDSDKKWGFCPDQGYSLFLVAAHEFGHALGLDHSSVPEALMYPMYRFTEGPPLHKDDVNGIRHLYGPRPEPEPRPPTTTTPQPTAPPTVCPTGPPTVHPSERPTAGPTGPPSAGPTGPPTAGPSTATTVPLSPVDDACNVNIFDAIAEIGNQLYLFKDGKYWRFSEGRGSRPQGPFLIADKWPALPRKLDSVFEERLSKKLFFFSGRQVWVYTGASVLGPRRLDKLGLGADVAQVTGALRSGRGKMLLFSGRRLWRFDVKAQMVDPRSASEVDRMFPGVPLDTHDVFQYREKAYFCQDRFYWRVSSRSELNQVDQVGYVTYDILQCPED

As for DPWRA-LTASG, the “Kobs” value on MMP-9 (setting [3]) and on MMP-2 [2] (setting [5]) was 6396.07 M⁻¹ s⁻¹ in each case. In addition, the “relative probability (RP)” value in the test on MMP-2 [1] (setting [4]) is listed as 22.4074.
In the case of DRPNY-LTASG, the results for the “Kobs” value at MMP-9 (setting [3]) and on MMP-2 [2] (setting [5]) were 1196.62 M⁻¹ s⁻¹ and 4082.43 M⁻¹ s⁻¹, respectively. In the test on MMP-2 [1] (setting [4]), the “relative probability (RP)” value worked out at 17.2533.
Consider DRQLS-LTASG, for which the “Kobs” value at MMP-9 (setting [3]) is 0 M⁻¹ s⁻¹; at MMP-2 [2] (setting [5]), 84.609 M⁻¹ s⁻¹. Further, the “relative probability (RP)” value with MMP-2 [1] (setting [4]) turned out to be 0.4979.
For the substance DSLAW-LTASG, the entries for the “Kobs” value on MMP-9 (setting [6]) and at MMP-2 [2] (setting [8]) were 1561.44 M⁻¹ s⁻¹ and 10866.7 M⁻¹ s⁻¹, respectively. Besides, in the test on MMP-2 [1] (setting [7]), the “relative probability (RP)” value was found to be 22.0358.
In the case of EHAWN-LTASG, the results for the “Kobs” value on MMP-9 (setting [3]) and on MMP-2 [2] (setting [5]) were 2280.5 M⁻¹ s⁻¹ and 2218.08 M⁻¹ s⁻¹, respectively. The “relative probability (RP)” value with MMP-2 [1] (setting [4]) was determined as 14.0049.
With EIWLP-ITASG, the figures for the “Kobs” value at MMP-9 (setting [6]) and at MMP-2 [2] (setting [8]) were 142.481 M⁻¹ s⁻¹ and 951.362 M⁻¹ s⁻¹, respectively. Besides, the “relative probability (RP)” value with MMP-2 [1] (setting [7]) worked out at 0.6666.
On the same counts, the results for ELMLS-MTASG are 142.481 M⁻¹ s⁻¹, 2157.02 M⁻¹ s⁻¹ and 5.234.
Regarding ELSLA-LTASG, the entries for the “Kobs” value on MMP-9 (setting [3]) and on MMP-2 [2] (setting [5]) were 1112.44 M⁻¹ s⁻¹ and 1925.41 M⁻¹ s⁻¹, respectively. In the test with MMP-2 [1] (setting [4]), the “relative probability (RP)” value came out at 6.019.
Regarding ELVRS-LTASG, the “Kobs” value at MMP-9 (setting [3]) and at MMP-2 [2] (setting [5]) was 12792.1 M⁻¹ s⁻¹ throughout. For the same substance, the “relative probability (RP)” value in the test on MMP-2 [1] (setting [4]) is on record as 12.3051.
EMSWG-LTASG: the results for the “Kobs” value on MMP-9 (setting [6]) and on MMP-2 [2] (setting [8]) were 231.616 M⁻¹ s⁻¹ and 0 M⁻¹ s⁻¹, respectively. The “relative probability (RP)” value with MMP-2 [1] (setting [7]) worked out at 0.1389.
Consider EMYGN-MTASG, for which the “Kobs” value on MMP-9 (setting [6]) came to 451.441 M⁻¹ s⁻¹; on MMP-2 [2] (setting [8]), 5667.28 M⁻¹ s⁻¹. Also, the “relative probability (RP)” value in the test on MMP-2 [1] (setting [7]) came to 13.8836.
As to ENFLH-LTASG, the “Kobs” value on MMP-9 (setting [6]) worked out at 27.918 M⁻¹ s⁻¹; at MMP-2 [2] (setting [8]), 142.481 M⁻¹ s⁻¹. In the test on MMP-2 [1] (setting [7]), the “relative probability (RP)” value is recorded as 0.8093.
EQAWY-LTASG: the “Kobs” value was 726.013 M⁻¹ s⁻¹ at MMP-9 (setting [6]) and 1154.21 M⁻¹ s⁻¹ on MMP-2 [2] (setting [8]). Also, in the test on MMP-2 [1] (setting [7]), the “relative probability (RP)” value was 0.09636.
For EQLSF-LTASG, the “Kobs” value came to 0 M⁻¹ s⁻¹ at MMP-9 (setting [6]) and 12792.1 M⁻¹ s⁻¹ at MMP-2 [2] (setting [8]). Moreover, in the test with MMP-2 [1] (setting [7]), the “relative probability (RP)” value is 14.5333.
Take ERFSH-LTASG: the “Kobs” value on MMP-9 (setting [3]) worked out at 231.616 M⁻¹ s⁻¹; on MMP-2 [2] (setting [5]) it was 2344.36 M⁻¹ s⁻¹. Further, the “relative probability (RP)” value in the test with MMP-2 [1] (setting [4]) is 16.5216.
Turning to ERIYA-LTASG, the “Kobs” value on MMP-9 (setting [6]) was found to be 7386.83 M⁻¹ s⁻¹; at MMP-2 [2] (setting [8]) it was 2687.73 M⁻¹ s⁻¹. Moreover, the “relative probability (RP)” value in the test with MMP-2 [1] (setting [7]) was found to be 6.967.
In the case of ERSLA-WTASG, the “Kobs” value on MMP-9 (setting [3]) stood at 113.394 M⁻¹ s⁻¹; at MMP-2 [2] (setting [5]), 2157.02 M⁻¹ s⁻¹. Further, in the test on MMP-2 [1] (setting [4]), the “relative probability (RP)” value is 18.2943.
On the same counts, the results for ERSLN-LTASG are 1239.69 M⁻¹ s⁻¹, 726.013 M⁻¹ s⁻¹ and 3.302.
On to ERVWA-ITASG, for which the “Kobs” value at MMP-9 (setting [3]) is 3438.54 M⁻¹ s⁻¹; at MMP-2 [2] (setting [5]) it was 1239.69 M⁻¹ s⁻¹. Moreover, in the test with MMP-2 [1] (setting [4]), the “relative probability (RP)” value worked out at 3.219.
For the substance ESFAA-LTASG, the “Kobs” value was determined as 56.119 M⁻¹ s⁻¹ at MMP-9 (setting [3]) and 12792.1 M⁻¹ s⁻¹ on MMP-2 [2] (setting [5]). The “relative probability (RP)” value in the test with MMP-2 [1] (setting [4]) is given as 18.8584.
Consider ETMLA-LTASG, for which the “Kobs” value at MMP-9 (setting [6]) was 0 M⁻¹ s⁻¹; on MMP-2 [2] (setting [8]) it was 484.315 M⁻¹ s⁻¹. Besides, the “relative probability (RP)” value with MMP-2 [1] (setting [7]) is given as 5.6722.
With EVARA-MTASG, the “Kobs” value at MMP-9 (setting [3]) was found to be 5090.5 M⁻¹ s⁻¹; on MMP-2 [2] (setting [5]), 7015.91 M⁻¹ s⁻¹. In the test on MMP-2 [1] (setting [4]), the “relative probability (RP)” value is 25.2992.
In the case of EVARA-WTASG, the figures for the “Kobs” value at MMP-9 (setting [6]) and at MMP-2 [2] (setting [8]) were 1513.13 M⁻¹ s⁻¹ and 7386.83 M⁻¹ s⁻¹, respectively. Besides, the “relative probability (RP)” value in the test on MMP-2 [1] (setting [7]) stood at 17.4628.
As for FDAQS-LTASG, the “Kobs” value at MMP-9 (setting [3]) was determined as 874.197 M⁻¹ s⁻¹; on MMP-2 [2] (setting [5]) it was 1711.63 M⁻¹ s⁻¹. Further, the “relative probability (RP)” value with MMP-2 [1] (setting [4]) came to 18.365.
As to FDISH-LTASG, the “Kobs” value at MMP-9 (setting [6]) was determined as 171.876 M⁻¹ s⁻¹; at MMP-2 [2] (setting [8]), 10866.7 M⁻¹ s⁻¹. Also, in the test on MMP-2 [1] (setting [7]), the “relative probability (RP)” value came out at 30.7015.
Turning to FGPYA-MTASG, the “Kobs” value at MMP-9 (setting [3]) came out at 12792.1 M⁻¹ s⁻¹; at MMP-2 [2] (setting [5]), 1870.4 M⁻¹ s⁻¹. The “relative probability (RP)” value in the test on MMP-2 [1] (setting [4]) worked out at 28.0901.
